Measured values: patent publication US20150273057A1, “Combination” (GLAXOSMITHKLINE LLC, priority 2012, published 2015)

What was measured:
Assay in all cases: Cell growth inhibition assay (Cell Titer Glo, 7 days)
Type in all cases: cell-based, Human
[1] = system: RKO; details: RKO BRAF V600E mutant CRC line, relative to vehicle (DMSO)
Protocol: (§1) Human colon tumor lines, Colo-205, HT-29, RKO, SW1417, LS411N and human melanoma line A375 were from ATCC. All lines were cultured in RPMI 1640 medium containing 10% fetal bovine serum (FBS).
(§2) All cells were cultured for a minimum of 72 hours prior to cell plating. Cells were assayed in a 96-well tissue culture plate (NUNC 136102) of RPMI medium containing 10% FBS for all cells at 500 cells per well. […] ATP levels were determined by adding Cell Titer Glo® (Promega) according to the manufacturer's protocol. Briefly, Cell Titer Glo0 was added to each plate, incubated for 30 minutes then luminescent signal was read on the SpectraMax L plate reader with a 0.5 sec integration time.
(§3) Inhibition of cell growth was estimated after treatment with compound or combination of compounds for 7 days and comparing the signal to cells treated with vehicle (DMSO). Cell growth was calculated relative to vehicle (DMSO) treated control wells.

[2] = system: LS411N; details: LS411N BRAF V600E mutant CRC line, relative to vehicle (DMSO)
Protocol: as §1, §2, §3

[3] = system: SW1417; details: SW1417 BRAF V600E mutant CRC line, relative to vehicle (DMSO)
Protocol: as §1, §2, §3

[4] = system: Colo-205; details: Colo-205 BRAF V600E mutant CRC line, relative to vehicle (DMSO)
Protocol: as §1, §2, §3

[5] = system: A375; details: A375 melanoma line, relative to vehicle (DMSO)
Protocol: as §1, §2, §3

[6] = system: HT-29; details: HT-29 BRAF V600E mutant CRC line, relative to vehicle (DMSO)
Protocol: as §1, §2, §3

| SMILES | cell growth inhibition, agent alone [1] | cell growth inhibition, agent alone [2] | cell growth inhibition, agent alone [3] | cell growth inhibition, agent alone [4] | cell growth inhibition, agent alone [5] | cell growth inhibition, agent alone [6] |
| --- | --- | --- | --- | --- | --- | --- |
| CC(C)(C)c1nc(-c2cccc(NS(=O)(=O)c3c(F)cccc3F)c2F)c(-c2ccnc(N)n2)s1 [Compound B, N-{3-[5-(2-Amino-4-pyrimidinyl)-2-(1,1-dimethylethyl)-1,3-thiazol-4-yl]-2-fluorophenyl}-2,6-difluorobenzenesulfonamide] | resistant | sensitive | resistant | sensitive | sensitive | sensitive |
| CC(=O)Nc1cccc(-n2c(=O)n(C3CC3)c(=O)c3c(Nc4ccc(I)cc4F)n(C)c(=O)c(C)c32)c1 [Compound A, N-{3-[3-cyclopropyl-5-(2-fluoro-4-iodo-phenylamino)6,8-dimethyl-2,4,7-trioxo-3,4,6,7-tetrahydro-2H-pyrido[4,3-d]pyrimidin-1-yl]phenyl}acetamide] | resistant | sensitive | resistant | sensitive | sensitive | sensitive |
| C#Cc1cccc(Nc2ncnc3cc(OCCOC)c(OCCOC)cc23)c1 [erlotinib, reference compound] | inactive | inactive | inactive | inactive | inactive | inactive |
